This passage reports IC50 results from patent publication US20260242419A1, “A CYCLIC PEPTIDE FOR TRAPPING INTERLEUKIN-1 BETA” (Merck Sharp & Dohme LLC, priority 2023, published 2026).

Molecules are shown by their SMILES. Starred links: 1 amine or outer side, 2 acyl side, 3 side chain; linkers in the order of their positions; H or OH if unused. Non-standard residues stand in square brackets, D forms with d. Residues, ends and D or L forms follow the SMILES beside them. Phe(4-(cis-4-COOH-cHex)) = N[C@@H](Cc1ccc([C@H]2CC[C@@H](C(=O)O)CC2)cc1)C(=O)O; Phe(4-(5-CO2H-2-pyrimidyl)) = N[C@@H](Cc1ccc(-c2ncc(C(=O)O)cn2)cc1)C(=O)O; dPro(4R-(4-pyridylmethyl)) = O=C(O)[C@H]1C[C@@H](Cc2ccncc2)CN1; Trp(βS-Me,4-F) = C[C@@H](c1c[nH]c2cccc(F)c12)[C@H](N)C(=O)O; X35 = O=C(O)C12CC(c3ccc(C[C@H](N[*:1])C(=O)[*:2])cc3)(C1)C2; Bip(4'-COOH) = N[C@@H](Cc1ccc(-c2ccc(C(=O)O)cc2)cc1)C(=O)O; Ala(1-bicyclo(1.1.1)pentyl) = N[C@@H](CC12CC(C1)C2)C(=O)O; X21 = O=C(O)c1ccc(-c2ccc(C[C@H](N[*:1])C(=O)[*:2])cn2)cc1; X26 = O=C(O)c1ccc(-c2ncc(C[C@H](N[*:1])C(=O)[*:2])cn2)cc1; dPro(4R-Bzl(4-F)) = O=C(O)[C@H]1C[C@@H](Cc2ccc(F)cc2)CN1; Ala(pyrimidin-5-yl) = N[C@@H](Cc1cncnc1)C(=O)O; Phe(4-COOH) = N[C@@H](Cc1ccc(C(=O)O)cc1)C(=O)O; X36 = O=C(O)c1ccc(C[C@H](N[*:1])C(=O)[*:2])cn1; Ala(2-pyrazinyl) = N[C@@H](Cc1cnccn1)C(=O)O; Pro(cis-4-F) = O=C(O)[C@@H]1C[C@H](F)CN1; X47 = O=C([C@H](Cc1cccnn1)N[*:1])[*:2]; AEF = NCCOc1ccc(C[C@H](N)C(=O)O)cc1; 4Pal = N[C@@H](Cc1ccncc1)C(=O)O; αMeS = C[C@](N)(CO)C(=O)O; Api = NC1(C(=O)O)CCNCC1; Dab = NCC[C@H](N)C(=O)O; Dap = NC[C@H](N)C(=O)O; Aib = CC(C)(N)C(=O)O

In general, IC50 refers to the concentration that gives 50% inhibition.

The target in this test is T1, IL-1β (Homo sapiens, UniProt P01584).
T1 construct: purchased BioLegend 579404
T1 sequence (P01584 117-269): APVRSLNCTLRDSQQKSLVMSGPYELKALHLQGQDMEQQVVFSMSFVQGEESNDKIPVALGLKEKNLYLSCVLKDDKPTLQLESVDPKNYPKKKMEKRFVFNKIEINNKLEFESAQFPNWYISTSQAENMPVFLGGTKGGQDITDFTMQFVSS
Put plainly: IL-6 assay in MRC5 cells: inhibition of IL-1β induced IL-6 secretion (AlphaLISA). Type of test: cell-based. The settings on record: inhibition of IL-1β induced IL-6 secretion in MRC5 cells; read-out: MRC5 IC50. An outline of the steps: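 Compound was pre-incubated 1 h at ambient temperature with recombinant human IL-1β at 2λ EC80 before adding human lung fibroblast MRC5 cells (3000/well) in EMEM with 0.025% BSA. After overnight culture at 37 °C, 5% CO2, secreted IL-6 in conditioned medium was measured by AlphaLISA; IC50 from 4-parameter logistic fits.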
For orientation: Alpha assays give light when donor and acceptor beads are brought close together.
In the case of `C[C@@H]1NC(=O)C(C)(C)NC(=O)[C@H]([C@@H](C)c2c[nH]c3cccc(F)c23)NC(=O)[C@@H]2C[C@H](F)CN2C(=O)CNC(=O)[C@H](Cc2ccc(C(=O)O)cc2)NC(=O)[C@H](CC23CC(C2)C3)NC(=O)[C@H](Cc2ccc(-c3ncc(C(=O)O)cn3)cc2)NC(=O)[C@H]2C[C@@H](Cc3ccncc3)CN2C(=O)CNC(=O)[C@H](CCN)NC(=O)[C@H](CCC(N)=O)NC(=O)[C@H](Cc2ccncc2)NC(=O)C(C)(C)NC(=O)[C@H](Cc2c[nH]c3ccccc23)NC1=O` [Example 88] (cyclo([Phe(4-(5-CO2H-2-pyrimidyl))][Ala(1-bicyclo(1.1.1)pentyl)][Phe(4-COOH)]G[Pro(cis-4-F)][Trp(βS-Me,4-F)][Aib]AW[Aib][4Pal]Q[Dab]G[dPro(4R-(4-pyridylmethyl))])), the IC50 amounted to 0.083 nM.
To `C[C@@H](c1c[nH]c2cccc(F)c12)[C@@H]1NC(=O)[C@@H]2C[C@H](F)CN2C(=O)CNC(=O)[C@H](Cc2ccc(C(=O)O)cc2)NC(=O)[C@H](CC23CC(C2)C3)NC(=O)[C@H](Cc2ccc(-c3ncc(C(=O)O)cn3)cc2)NC(=O)[C@H]2C[C@@H](Cc3ccncc3)CN2C(=O)CNC(=O)[C@H](CCN)NC(=O)[C@H](CCC(N)=O)NC(=O)[C@H](Cc2ccncc2)NC(=O)C(C)(C)NC(=O)[C@H](Cc2c[nH]c3ccccc23)NC(=O)[C@H](CO)NC(=O)C(C)(C)NC1=O` [Example 89] (cyclo([Phe(4-(5-CO2H-2-pyrimidyl))][Ala(1-bicyclo(1.1.1)pentyl)][Phe(4-COOH)]G[Pro(cis-4-F)][Trp(βS-Me,4-F)][Aib]SW[Aib][4Pal]Q[Dab]G[dPro(4R-(4-pyridylmethyl))])) belongs 0.045 nM.
For `C[C@@H](c1c[nH]c2cccc(F)c12)[C@@H]1NC(=O)[C@@H]2C[C@H](F)CN2C(=O)CNC(=O)[C@H](Cc2ccc(C(=O)O)cc2)NC(=O)[C@H](Cc2ccncc2)NC(=O)[C@H](Cc2cnc(-c3ccc(C(=O)O)cc3)nc2)NC(=O)[C@H]2C[C@@H](Cc3ccc(F)cc3)CN2C(=O)CNC(=O)[C@H](CCN)NC(=O)[C@H](CCC(N)=O)NC(=O)[C@H](Cc2cncnc2)NC(=O)C(C)(C)NC(=O)[C@H](Cc2c[nH]c3ccccc23)NC(=O)[C@H](CCC(=O)O)NC(=O)C(C)(C)NC1=O` [Example 91] (cyclo([X26][4Pal][Phe(4-COOH)]G[Pro(cis-4-F)][Trp(βS-Me,4-F)][Aib]EW[Aib][Ala(pyrimidin-5-yl)]Q[Dab]G[dPro(4R-Bzl(4-F))])), the concentration for half-maximal inhibition (IC50) was 0.054 nM.
Consider `C[C@@H](c1c[nH]c2cccc(F)c12)[C@@H]1NC(=O)[C@@H]2C[C@H](F)CN2C(=O)CNC(=O)[C@H](Cc2ccc(C(=O)O)cc2)NC(=O)[C@H](CC23CC(C2)C3)NC(=O)[C@H](Cc2ccc(-c3ccc(C(=O)O)cc3)cc2)NC(=O)[C@H]2C[C@@H](Cc3ccncc3)CN2C(=O)CNC(=O)[C@H](CCN)NC(=O)[C@H](CCC(N)=O)NC(=O)[C@H](CN)NC(=O)C(C)(C)NC(=O)[C@H](Cc2c[nH]c3ccccc23)NC(=O)[C@H](CCC(=O)O)NC(=O)C(C)(C)NC1=O` [Example 93] (cyclo([Bip(4'-COOH)][Ala(1-bicyclo(1.1.1)pentyl)][Phe(4-COOH)]G[Pro(cis-4-F)][Trp(βS-Me,4-F)][Aib]EW[Aib][Dap]Q[Dab]G[dPro(4R-(4-pyridylmethyl))])), for which the IC50 worked out at 0.059 nM.
To `CC(=O)NCCOc1ccc(C[C@@H]2NC(=O)[C@H]3C[C@@H](Cc4ccc(F)cc4)CN3C(=O)CNC(=O)[C@H](CCN)NC(=O)[C@H](CCC(N)=O)NC(=O)[C@H](Cc3ccncc3)NC(=O)C(C)(C)NC(=O)[C@H](Cc3c[nH]c4ccccc34)NC(=O)[C@H](CCC(=O)O)NC(=O)C(C)(C)NC(=O)[C@H]([C@@H](C)c3c[nH]c4cccc(F)c34)NC(=O)[C@@H]3C[C@H](F)CN3C(=O)CNC(=O)[C@H](Cc3ccc(C(=O)O)cc3)NC(=O)[C@H](Cc3ccncc3)NC2=O)cc1` [Example 95] (cyclo([AEF](Ac)[4Pal][Phe(4-COOH)]G[Pro(cis-4-F)][Trp(βS-Me,4-F)][Aib]EW[Aib][4Pal]Q[Dab]G[dPro(4R-Bzl(4-F))])) belongs 0.054 nM; to `C[C@@H](c1c[nH]c2cccc(F)c12)[C@@H]1NC(=O)[C@@H]2C[C@H](F)CN2C(=O)CNC(=O)[C@H](Cc2ccc(C(=O)O)cc2)NC(=O)[C@H](CC23CC(C2)C3)NC(=O)[C@H](Cc2ccc(-c3ccc(C(=O)O)cc3)cc2)NC(=O)[C@H]2C[C@@H](Cc3ccc(F)cc3)CN2C(=O)CNC(=O)[C@H](CCN)NC(=O)[C@H](CCC(N)=O)NC(=O)[C@H](CO)NC(=O)C(C)(C)NC(=O)[C@H](Cc2c[nH]c3ccccc23)NC(=O)[C@H](CO)NC(=O)[C@](C)(CO)NC1=O` [Example 97] (cyclo([Bip(4'-COOH)][Ala(1-bicyclo(1.1.1)pentyl)][Phe(4-COOH)]G[Pro(cis-4-F)][Trp(βS-Me,4-F)][αMeS]SW[Aib]SQ[Dab]G[dPro(4R-Bzl(4-F))])), 0.036 nM; to `C[C@@H](c1c[nH]c2cccc(F)c12)[C@@H]1NC(=O)[C@@H]2C[C@H](F)CN2C(=O)CNC(=O)[C@H](Cc2ccc(C(=O)O)nc2)NC(=O)[C@H](CC23CC(C2)C3)NC(=O)[C@H](Cc2ccc(-c3ccc(C(=O)O)cc3)cc2)NC(=O)[C@H]2C[C@@H](Cc3ccc(F)cc3)CN2C(=O)CNC(=O)[C@H](CCN)NC(=O)[C@H](CCC(N)=O)NC(=O)[C@H](Cc2cncnc2)NC(=O)C(C)(C)NC(=O)[C@H](Cc2c[nH]c3ccccc23)NC(=O)[C@H](CCC(=O)O)NC(=O)C(C)(C)NC1=O` [Example 98] (cyclo([Bip(4'-COOH)][Ala(1-bicyclo(1.1.1)pentyl)][X36]G[Pro(cis-4-F)][Trp(βS-Me,4-F)][Aib]EW[Aib][Ala(pyrimidin-5-yl)]Q[Dab]G[dPro(4R-Bzl(4-F))])), 0.058 nM.
Consider `C[C@@H](c1c[nH]c2cccc(F)c12)[C@@H]1NC(=O)[C@@H]2C[C@H](F)CN2C(=O)CNC(=O)[C@H](Cc2ccc(C(=O)O)cc2)NC(=O)[C@H](CC23CC(C2)C3)NC(=O)[C@H](Cc2ccc(C34CC(C(=O)O)(C3)C4)cc2)NC(=O)[C@H]2C[C@@H](Cc3ccc(F)cc3)CN2C(=O)CNC(=O)[C@H](CCN)NC(=O)[C@H](CCC(N)=O)NC(=O)[C@H](Cc2cncnc2)NC(=O)C(C)(C)NC(=O)[C@H](Cc2c[nH]c3ccccc23)NC(=O)[C@H](CCC(=O)O)NC(=O)C(C)(C)NC1=O` [Example 99] (cyclo([Aib]EW[Aib][Ala(pyrimidin-5-yl)]Q[Dab]G[dPro(4R-Bzl(4-F))][X35][Ala(1-bicyclo(1.1.1)pentyl)][Phe(4-COOH)]G[Pro(cis-4-F)][Trp(βS-Me,4-F)])), for which the IC50 turned out to be 0.031 nM.
As for `C[C@@H](c1c[nH]c2cccc(F)c12)[C@@H]1NC(=O)[C@@H]2C[C@H](F)CN2C(=O)CNC(=O)[C@H](Cc2ccc(C(=O)O)cc2)NC(=O)[C@H](CC23CC(C2)C3)NC(=O)[C@H](Cc2ccc(-c3ccc(C(=O)O)cc3)nc2)NC(=O)[C@H]2C[C@@H](Cc3ccc(F)cc3)CN2C(=O)CNC(=O)[C@H](CCN)NC(=O)[C@H](CCC(N)=O)NC(=O)[C@H](CN)NC(=O)C(C)(C)NC(=O)[C@H](Cc2c[nH]c3ccccc23)NC(=O)[C@H](CCC(=O)O)NC(=O)C(C)(C)NC1=O` [Example 100] (cyclo([X21][Ala(1-bicyclo(1.1.1)pentyl)][Phe(4-COOH)]G[Pro(cis-4-F)][Trp(βS-Me,4-F)][Aib]EW[Aib][Dap]Q[Dab]G[dPro(4R-Bzl(4-F))])), the IC50 is 0.074 nM.
In the case of `C[C@@H](c1c[nH]c2cccc(F)c12)[C@@H]1NC(=O)[C@@H]2C[C@H](F)CN2C(=O)CNC(=O)[C@H](Cc2ccc(C(=O)O)cc2)NC(=O)[C@H](Cc2ccncc2)NC(=O)[C@H](Cc2ccc(-c3ccc(C(=O)O)cc3)cc2)NC(=O)[C@H]2C[C@@H](Cc3ccc(F)cc3)CN2C(=O)CNC(=O)[C@H](CCN)NC(=O)[C@H](CCC(N)=O)NC(=O)[C@H](Cc2cnccn2)NC(=O)C(C)(C)NC(=O)[C@H](Cc2c[nH]c3ccccc23)NC(=O)[C@H](CCC(=O)O)NC(=O)C(C)(C)NC1=O` [Example 101] (cyclo([4Pal][Phe(4-COOH)]G[Pro(cis-4-F)][Trp(βS-Me,4-F)][Aib]EW[Aib][Ala(2-pyrazinyl)]Q[Dab]G[dPro(4R-Bzl(4-F))][Bip(4'-COOH)])) it was 0.021 nM; in that of `C[C@@H](c1c[nH]c2cccc(F)c12)[C@@H]1NC(=O)[C@@H]2C[C@H](F)CN2C(=O)CNC(=O)[C@H](Cc2ccc(C(=O)O)cc2)NC(=O)[C@H](Cc2ccncc2)NC(=O)[C@H](Cc2ccc(-c3ccc(C(=O)O)cc3)cc2)NC(=O)[C@H]2C[C@@H](Cc3ccc(F)cc3)CN2C(=O)CNC(=O)[C@H](CCN)NC(=O)[C@H](CCC(N)=O)NC(=O)[C@H](Cc2cccnn2)NC(=O)C(C)(C)NC(=O)[C@H](Cc2c[nH]c3ccccc23)NC(=O)[C@H](CCC(=O)O)NC(=O)C(C)(C)NC1=O` [Example 102] (cyclo([Bip(4'-COOH)][4Pal][Phe(4-COOH)]G[Pro(cis-4-F)][Trp(βS-Me,4-F)][Aib]EW[Aib][X47]Q[Dab]G[dPro(4R-Bzl(4-F))])), 0.021 nM; in that of `C[C@@H](c1c[nH]c2cccc(F)c12)[C@@H]1NC(=O)[C@@H]2C[C@H](F)CN2C(=O)CNC(=O)[C@H](Cc2ccc(C(=O)O)cc2)NC(=O)[C@H](CC23CC(C2)C3)NC(=O)[C@H](Cc2ccc([C@H]3CC[C@@H](C(=O)O)CC3)cc2)NC(=O)[C@H]2C[C@@H](Cc3ccc(F)cc3)CN2C(=O)CNC(=O)[C@H](CCN)NC(=O)[C@H](CCC(N)=O)NC(=O)[C@H](CO)NC(=O)C2(CCNCC2)NC(=O)[C@H](Cc2c[nH]c3ccccc23)NC(=O)[C@H](CCC(=O)O)NC(=O)C(C)(C)NC1=O` [Example 105] (cyclo([Phe(4-(cis-4-COOH-cHex))][Ala(1-bicyclo(1.1.1)pentyl)][Phe(4-COOH)]G[Pro(cis-4-F)][Trp(βS-Me,4-F)][Aib]EW[Api]SQ[Dab]G[dPro(4R-Bzl(4-F))])), 0.083 nM.
